From ChEMBL document CHEMBL5465560, “Selectivity Literature for EUbOPEN Chemogenomic Library” (2024)

How the values were obtained:
[1] = target: Mitogen-activated protein kinase 4 (Homo sapiens) (UniProt P31152); assay: Selectivity interaction (KinomeScan (DiscoverX)) EUB0000092b MAPK4; conditions: at 10 µM
[2] = target: SRSF protein kinase 2 (Homo sapiens) (UniProt P78362); assay: Selectivity interaction (KinomeScan (DiscoverX)) EUB0000092b SRPK2; conditions: at 10 µM
[3] = target: T1, Serine/threonine-protein kinase tousled-like 1 (Homo sapiens) (UniProt Q9UKI8); assay: Selectivity interaction (KinomeScan (DiscoverX)) EUB0000655a TLK1; conditions: at 10 µM
T1 sequence (whole entry): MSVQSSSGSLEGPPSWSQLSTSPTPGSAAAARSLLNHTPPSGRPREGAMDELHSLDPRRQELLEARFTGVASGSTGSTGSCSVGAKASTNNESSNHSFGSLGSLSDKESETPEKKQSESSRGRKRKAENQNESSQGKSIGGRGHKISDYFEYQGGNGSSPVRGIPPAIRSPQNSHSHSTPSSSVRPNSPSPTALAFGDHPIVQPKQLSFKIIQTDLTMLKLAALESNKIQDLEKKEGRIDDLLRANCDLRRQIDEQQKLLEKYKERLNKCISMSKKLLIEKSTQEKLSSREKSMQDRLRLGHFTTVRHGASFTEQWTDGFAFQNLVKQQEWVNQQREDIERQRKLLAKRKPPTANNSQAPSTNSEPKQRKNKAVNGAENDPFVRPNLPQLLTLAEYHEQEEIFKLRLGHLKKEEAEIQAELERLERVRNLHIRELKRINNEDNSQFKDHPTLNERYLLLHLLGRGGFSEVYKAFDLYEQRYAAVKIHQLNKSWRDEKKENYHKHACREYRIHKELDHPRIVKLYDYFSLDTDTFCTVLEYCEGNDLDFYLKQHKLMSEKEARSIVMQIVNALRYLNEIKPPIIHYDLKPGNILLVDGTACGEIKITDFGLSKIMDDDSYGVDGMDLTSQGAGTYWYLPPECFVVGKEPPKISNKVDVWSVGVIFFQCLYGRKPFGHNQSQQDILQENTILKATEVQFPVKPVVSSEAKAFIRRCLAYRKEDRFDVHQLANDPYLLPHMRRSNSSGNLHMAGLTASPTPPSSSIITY

[4] = target: Death-associated protein kinase 3 (Homo sapiens) (UniProt O43293); assay: Selectivity interaction (KinomeScan (DiscoverX)) EUB0001079a DAPK3; conditions: at 1 µM
[5] = target: Tyrosine-protein kinase ABL1 (Homo sapiens, UniProt P00519); assay: Selectivity interaction (Kinase panel (KiNativ target engagement assay in Jurkat cells)) EUB0001635a ABL1; format: cell-based; conditions: Selectivity number of off-targets 0.0, Selectivity number of targets 233.0, Source Knowledge https://www.sciencedirect.com/science/article/pii/S2451945619300674?via%3Dihub, at 1 µM
[6] = target: T2, Serine/threonine-protein kinase NLK (Homo sapiens) (UniProt Q9UBE8); assay: Selectivity interaction (KinomeScan (DiscoverX)) EUB0000666a NLK; conditions: at 10 µM
T2 sequence (whole entry): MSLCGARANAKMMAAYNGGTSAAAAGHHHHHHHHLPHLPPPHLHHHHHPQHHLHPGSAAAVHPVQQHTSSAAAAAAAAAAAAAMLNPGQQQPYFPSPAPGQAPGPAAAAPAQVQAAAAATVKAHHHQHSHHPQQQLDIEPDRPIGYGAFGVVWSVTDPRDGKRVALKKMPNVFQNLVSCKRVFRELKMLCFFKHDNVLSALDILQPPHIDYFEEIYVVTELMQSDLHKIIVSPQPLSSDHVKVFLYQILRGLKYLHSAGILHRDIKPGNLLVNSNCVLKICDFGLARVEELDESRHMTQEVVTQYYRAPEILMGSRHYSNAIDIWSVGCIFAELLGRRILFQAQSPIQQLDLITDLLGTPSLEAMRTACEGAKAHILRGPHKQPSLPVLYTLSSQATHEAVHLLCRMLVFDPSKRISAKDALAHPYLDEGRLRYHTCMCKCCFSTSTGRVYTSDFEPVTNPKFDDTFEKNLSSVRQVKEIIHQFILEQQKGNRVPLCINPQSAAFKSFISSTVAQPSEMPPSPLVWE

[7] = target: RAC-gamma serine/threonine-protein kinase (Homo sapiens, UniProt Q9Y243); conditions: at 10 µM
[8] = target: T3, Serine/threonine-protein kinase LATS1 (Homo sapiens) (UniProt O95835); assay: Selectivity interaction (LanthaScreen Eu Kinase Binding Assay) EUB0001632a LATS1; conditions: at 10 µM
T3 sequence (whole entry): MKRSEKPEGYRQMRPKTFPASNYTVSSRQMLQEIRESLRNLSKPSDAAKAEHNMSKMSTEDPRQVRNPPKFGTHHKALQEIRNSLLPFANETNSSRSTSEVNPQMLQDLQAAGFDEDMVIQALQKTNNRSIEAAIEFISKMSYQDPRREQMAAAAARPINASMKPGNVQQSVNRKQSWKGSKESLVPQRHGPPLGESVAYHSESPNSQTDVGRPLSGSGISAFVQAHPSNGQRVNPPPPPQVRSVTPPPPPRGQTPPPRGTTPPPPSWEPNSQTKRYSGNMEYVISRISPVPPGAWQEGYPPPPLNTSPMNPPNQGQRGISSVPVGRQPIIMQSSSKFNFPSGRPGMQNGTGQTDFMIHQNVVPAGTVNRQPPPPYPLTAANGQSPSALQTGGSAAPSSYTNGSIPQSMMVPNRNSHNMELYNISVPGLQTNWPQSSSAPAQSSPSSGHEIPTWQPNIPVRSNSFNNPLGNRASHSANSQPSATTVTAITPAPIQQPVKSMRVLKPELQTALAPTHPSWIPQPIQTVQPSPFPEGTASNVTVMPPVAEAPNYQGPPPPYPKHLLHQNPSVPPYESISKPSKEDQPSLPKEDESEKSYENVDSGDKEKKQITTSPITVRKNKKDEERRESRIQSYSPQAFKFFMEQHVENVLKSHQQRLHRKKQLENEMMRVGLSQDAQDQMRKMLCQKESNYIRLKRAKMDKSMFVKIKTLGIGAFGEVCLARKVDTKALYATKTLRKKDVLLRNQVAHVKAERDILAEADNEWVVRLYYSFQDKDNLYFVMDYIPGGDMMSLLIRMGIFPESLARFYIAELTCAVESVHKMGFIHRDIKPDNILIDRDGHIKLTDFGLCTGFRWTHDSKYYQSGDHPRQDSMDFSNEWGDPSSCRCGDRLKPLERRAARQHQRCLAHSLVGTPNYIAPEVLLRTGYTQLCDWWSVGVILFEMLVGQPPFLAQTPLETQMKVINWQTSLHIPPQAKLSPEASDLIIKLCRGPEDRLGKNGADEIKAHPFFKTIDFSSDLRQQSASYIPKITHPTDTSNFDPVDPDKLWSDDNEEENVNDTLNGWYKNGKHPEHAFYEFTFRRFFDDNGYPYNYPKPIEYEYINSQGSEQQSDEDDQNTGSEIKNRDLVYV

[9] = target: Phosphatidylinositol 4,5-bisphosphate 3-kinase catalytic subunit alpha isoform (Homo sapiens) (UniProt P42336); conditions: at 10 µM
Sequence of Phosphatidylinositol 4,5-bisphosphate 3-kinase catalytic subunit alpha isoform (Homo sapiens) (P42336 whole entry, canonical isoform): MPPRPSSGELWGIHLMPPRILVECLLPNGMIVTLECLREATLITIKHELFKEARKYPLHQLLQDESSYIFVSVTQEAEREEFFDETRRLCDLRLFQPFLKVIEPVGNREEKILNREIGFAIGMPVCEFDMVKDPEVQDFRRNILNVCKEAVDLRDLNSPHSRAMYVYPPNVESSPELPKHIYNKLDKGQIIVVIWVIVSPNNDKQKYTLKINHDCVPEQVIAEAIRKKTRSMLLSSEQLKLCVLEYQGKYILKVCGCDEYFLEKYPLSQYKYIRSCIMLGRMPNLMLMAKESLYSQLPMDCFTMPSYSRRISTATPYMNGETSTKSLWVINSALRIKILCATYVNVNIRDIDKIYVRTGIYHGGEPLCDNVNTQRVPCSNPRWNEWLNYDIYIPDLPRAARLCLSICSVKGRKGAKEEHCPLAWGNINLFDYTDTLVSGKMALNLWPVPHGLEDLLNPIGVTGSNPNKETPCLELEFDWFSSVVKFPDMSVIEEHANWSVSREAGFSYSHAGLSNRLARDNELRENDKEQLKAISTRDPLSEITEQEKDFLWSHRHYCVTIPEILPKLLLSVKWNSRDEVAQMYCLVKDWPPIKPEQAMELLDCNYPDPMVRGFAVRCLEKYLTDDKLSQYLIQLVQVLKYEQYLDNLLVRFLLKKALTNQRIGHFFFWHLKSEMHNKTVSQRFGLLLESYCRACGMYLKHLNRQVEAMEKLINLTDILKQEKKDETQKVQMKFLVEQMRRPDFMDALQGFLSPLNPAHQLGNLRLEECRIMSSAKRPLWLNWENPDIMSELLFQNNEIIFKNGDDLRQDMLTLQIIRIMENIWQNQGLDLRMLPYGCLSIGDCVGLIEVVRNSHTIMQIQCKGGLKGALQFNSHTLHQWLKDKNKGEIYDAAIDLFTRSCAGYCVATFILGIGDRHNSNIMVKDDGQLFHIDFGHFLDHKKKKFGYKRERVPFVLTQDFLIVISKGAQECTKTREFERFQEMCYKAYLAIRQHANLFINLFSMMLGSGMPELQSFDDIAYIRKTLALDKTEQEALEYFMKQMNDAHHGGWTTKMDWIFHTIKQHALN

Sequence of SRSF protein kinase 2 (Homo sapiens) (P78362 whole entry, looked up): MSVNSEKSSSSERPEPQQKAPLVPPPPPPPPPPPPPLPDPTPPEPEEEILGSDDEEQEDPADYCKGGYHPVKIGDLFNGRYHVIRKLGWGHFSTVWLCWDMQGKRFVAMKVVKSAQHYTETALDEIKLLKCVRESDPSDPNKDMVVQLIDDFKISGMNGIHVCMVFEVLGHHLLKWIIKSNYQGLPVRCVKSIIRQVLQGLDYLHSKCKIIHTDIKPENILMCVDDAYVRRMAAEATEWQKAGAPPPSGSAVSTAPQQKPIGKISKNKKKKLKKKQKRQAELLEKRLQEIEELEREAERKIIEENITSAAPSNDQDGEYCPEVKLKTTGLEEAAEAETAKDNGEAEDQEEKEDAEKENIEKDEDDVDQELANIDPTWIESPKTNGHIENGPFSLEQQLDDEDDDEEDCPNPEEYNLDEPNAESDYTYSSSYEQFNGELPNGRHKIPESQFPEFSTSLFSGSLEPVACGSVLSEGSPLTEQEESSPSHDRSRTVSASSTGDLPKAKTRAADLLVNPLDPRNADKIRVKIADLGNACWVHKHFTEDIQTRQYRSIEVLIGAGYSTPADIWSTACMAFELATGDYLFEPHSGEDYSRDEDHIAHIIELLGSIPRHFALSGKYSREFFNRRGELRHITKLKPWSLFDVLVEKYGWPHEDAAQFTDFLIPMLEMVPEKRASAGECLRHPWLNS
Sequence of Mitogen-activated protein kinase 4 (Homo sapiens) (P31152 whole entry): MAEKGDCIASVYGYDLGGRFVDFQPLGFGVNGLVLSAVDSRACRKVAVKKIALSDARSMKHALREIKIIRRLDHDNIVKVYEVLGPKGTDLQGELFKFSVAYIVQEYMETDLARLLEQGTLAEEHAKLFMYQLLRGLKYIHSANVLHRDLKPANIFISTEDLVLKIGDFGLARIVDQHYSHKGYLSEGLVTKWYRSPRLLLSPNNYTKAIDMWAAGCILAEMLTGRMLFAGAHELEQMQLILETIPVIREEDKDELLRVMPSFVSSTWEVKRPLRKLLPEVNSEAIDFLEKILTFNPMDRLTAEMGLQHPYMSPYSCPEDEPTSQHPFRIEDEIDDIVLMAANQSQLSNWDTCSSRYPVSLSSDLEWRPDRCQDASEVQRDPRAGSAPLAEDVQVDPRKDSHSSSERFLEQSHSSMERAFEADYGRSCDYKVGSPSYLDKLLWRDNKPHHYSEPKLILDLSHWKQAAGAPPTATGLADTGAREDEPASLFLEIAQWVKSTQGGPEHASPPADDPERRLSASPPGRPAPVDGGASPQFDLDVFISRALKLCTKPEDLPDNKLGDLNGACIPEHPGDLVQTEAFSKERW
Sequence of Death-associated protein kinase 3 (Homo sapiens) (O43293 whole entry, looked up): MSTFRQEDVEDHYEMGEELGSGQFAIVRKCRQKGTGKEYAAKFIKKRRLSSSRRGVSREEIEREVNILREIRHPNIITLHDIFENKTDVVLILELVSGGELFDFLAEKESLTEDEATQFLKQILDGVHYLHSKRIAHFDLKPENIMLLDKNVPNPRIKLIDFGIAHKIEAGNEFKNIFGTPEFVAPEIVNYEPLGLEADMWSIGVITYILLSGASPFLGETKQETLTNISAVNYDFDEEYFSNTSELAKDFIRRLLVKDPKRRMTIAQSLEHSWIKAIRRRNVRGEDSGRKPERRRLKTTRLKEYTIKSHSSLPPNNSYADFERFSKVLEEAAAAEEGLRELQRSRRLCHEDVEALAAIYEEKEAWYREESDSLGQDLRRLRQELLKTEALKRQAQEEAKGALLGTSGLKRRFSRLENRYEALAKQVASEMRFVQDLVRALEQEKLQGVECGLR
Sequence of Tyrosine-protein kinase ABL1 (P00519 whole entry): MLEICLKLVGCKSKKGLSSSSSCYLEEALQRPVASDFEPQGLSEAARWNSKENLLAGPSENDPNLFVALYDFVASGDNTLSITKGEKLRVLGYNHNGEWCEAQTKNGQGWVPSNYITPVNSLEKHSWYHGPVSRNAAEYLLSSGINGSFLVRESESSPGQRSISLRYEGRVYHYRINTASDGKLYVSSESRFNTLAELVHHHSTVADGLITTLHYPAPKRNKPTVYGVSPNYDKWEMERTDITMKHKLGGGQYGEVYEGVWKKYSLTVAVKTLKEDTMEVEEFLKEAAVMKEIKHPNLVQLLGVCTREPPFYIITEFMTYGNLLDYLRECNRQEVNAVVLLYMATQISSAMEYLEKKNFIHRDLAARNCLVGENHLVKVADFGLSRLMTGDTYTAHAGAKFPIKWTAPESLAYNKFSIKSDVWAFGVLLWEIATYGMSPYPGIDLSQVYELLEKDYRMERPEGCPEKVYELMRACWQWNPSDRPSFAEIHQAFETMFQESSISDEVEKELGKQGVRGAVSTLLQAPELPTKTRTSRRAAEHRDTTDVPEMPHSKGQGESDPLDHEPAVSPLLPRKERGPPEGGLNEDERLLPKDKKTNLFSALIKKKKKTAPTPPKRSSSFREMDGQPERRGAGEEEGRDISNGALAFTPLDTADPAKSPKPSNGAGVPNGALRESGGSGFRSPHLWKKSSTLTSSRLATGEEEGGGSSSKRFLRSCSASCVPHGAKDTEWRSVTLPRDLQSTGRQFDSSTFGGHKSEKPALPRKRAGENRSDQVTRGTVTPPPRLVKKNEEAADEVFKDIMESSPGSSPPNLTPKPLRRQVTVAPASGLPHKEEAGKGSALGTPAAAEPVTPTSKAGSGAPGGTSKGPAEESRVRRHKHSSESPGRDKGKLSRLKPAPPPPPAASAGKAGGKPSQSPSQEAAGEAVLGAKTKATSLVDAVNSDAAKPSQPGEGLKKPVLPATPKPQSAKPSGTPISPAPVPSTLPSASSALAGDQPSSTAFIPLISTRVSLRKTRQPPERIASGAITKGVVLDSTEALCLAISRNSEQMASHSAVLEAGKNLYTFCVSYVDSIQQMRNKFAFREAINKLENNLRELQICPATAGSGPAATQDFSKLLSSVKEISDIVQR
Sequence of RAC-gamma serine/threonine-protein kinase (Q9Y243 whole entry): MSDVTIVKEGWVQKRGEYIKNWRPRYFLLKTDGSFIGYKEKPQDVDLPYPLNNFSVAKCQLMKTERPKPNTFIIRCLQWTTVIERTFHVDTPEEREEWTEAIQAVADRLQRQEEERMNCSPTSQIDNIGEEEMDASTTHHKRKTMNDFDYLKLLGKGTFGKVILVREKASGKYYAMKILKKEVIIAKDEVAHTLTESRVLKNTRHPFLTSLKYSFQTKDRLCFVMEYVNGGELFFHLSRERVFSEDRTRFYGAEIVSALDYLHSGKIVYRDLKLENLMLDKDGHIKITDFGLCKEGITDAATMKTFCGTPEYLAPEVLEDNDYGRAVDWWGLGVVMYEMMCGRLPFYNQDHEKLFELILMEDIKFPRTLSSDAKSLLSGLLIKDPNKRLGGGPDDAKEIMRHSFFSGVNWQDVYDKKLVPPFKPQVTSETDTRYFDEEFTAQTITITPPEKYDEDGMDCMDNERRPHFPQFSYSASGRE

SMILES: CCC(=O)N1CCN(c2ccc(-n3c(=O)ccc4cnc5ccc(-c6cnc7ccccc7c6)cc5c43)cc2C(F)(F)F)CC1
- % of control [1]: 80%
- % of control [2]: 100%

SMILES: CN(C)CCOc1ccc(-c2nc(-c3ccncc3)c(-c3ccc4c(c3)CC/C4=N\O)[nH]2)cc1
- % of control [3]: 99%

SMILES: Nc1cnc(N2CCc3cc(S(=O)(=O)Nc4c(F)cc(Cl)cc4F)cc(N4CCCC4=O)c32)nc1 [TP-020n]
- % of control [4]: 83%

SMILES: C=CC(=O)Nc1ccc(C(=O)Nc2[nH]nc3c2CN(C(=O)N[C@H](CN(C)C)c2ccccc2)C3(C)C)cc1
- % of engagement [5]: -12.6%

SMILES: O=C(NOC[C@H](O)CO)c1ccc(F)c(F)c1Nc1ccc(I)cc1F
- % of control [6]: 77%

SMILES: Cc1cc([C@@H](C)Nc2ccccc2C(=O)O)c2nc(N3CCOCC3)cc(=O)n2c1 [AZD-6482]
- % of control [7]: 100%

SMILES: Cn1cc(-n2cnc3c(NCc4nc5cc(Cl)c(Cl)cc5[nH]4)nc(N4CCOCC4)nc32)cn1
- % of inhibition [8]: -63.1%

SMILES: COCC(=O)NC/C=C/c1ccc2ncnc(Nc3ccc(Oc4ccc(C)nc4)c(C)c3)c2c1 [CP-724714]
- % of control [9]: 100%
